{"source": "patent US8846698B2", "about": "“Pyrrolo[2,3-d]pyrimidine tropomysin-related kinase inhibitors” (Pfizer Limited, priority 2011, dated 2014)", "note": "pIC50: −log10 of the molar value."}
{"target": "TRKA (Homo sapiens (Human), UniProt P04629)", "sequence (P04629 441-796)": "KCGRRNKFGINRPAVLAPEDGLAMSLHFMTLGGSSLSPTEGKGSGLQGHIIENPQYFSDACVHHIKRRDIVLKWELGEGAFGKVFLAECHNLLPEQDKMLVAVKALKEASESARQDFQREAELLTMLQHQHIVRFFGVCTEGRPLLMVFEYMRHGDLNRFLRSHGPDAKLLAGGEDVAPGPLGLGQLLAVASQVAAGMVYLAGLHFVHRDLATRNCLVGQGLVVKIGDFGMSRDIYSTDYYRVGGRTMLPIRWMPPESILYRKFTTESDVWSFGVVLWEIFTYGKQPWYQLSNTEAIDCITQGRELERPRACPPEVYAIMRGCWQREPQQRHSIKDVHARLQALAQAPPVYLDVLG", "experiment": "Isolated TRK enzyme assay (HTRF KinEASE-TK), TRKA", "assay_type": "biochemical", "conditions": "read-out: Trka enzyme (IC50)"}
{"smiles": "CC(C)n1cc(C(=O)c2cncc(NC(=O)c3c[nH]nc3C3CCC3)c2)c2cncnc21", "note": "[Example 389, 3-Cyclobutyl-1H-pyrazole-4-carboxylic acid [5-(7-isopropyl-7H-pyrrolo[2,3-d]pyrimidine-5-carbonyl)-pyridin-3-yl]-amide]", "pIC50": 7.07}
{"smiles": "CC(C)n1cc(C(=O)c2cncc(NC(=O)c3cnco3)c2)c2cncnc21", "note": "[Example 390, Oxazole-5-carboxylic acid [5-(7-isopropyl-7H-pyrrolo[2,3-d]pyrimidine-5-carbonyl)-pyridin-3-yl]-amide]", "pIC50": 5.01}
{"smiles": "Cc1c[nH]c(C(=O)Nc2cncc(C(=O)c3cn(C(C)C)c4ncncc34)c2)n1", "note": "[Example 391, 4-Methyl-1H-imidazole-2-carboxylic acid [5-(7-isopropyl-7H-pyrrolo[2,3-d]pyrimidine-5-carbonyl)-pyridin-3-yl]-amide]", "pIC50": 6.61}
{"smiles": "CC(C)n1cc(C(=O)c2cncc(NC(=O)c3cc4cc[nH]c4cn3)c2)c2cncnc21", "note": "[Example 392, 1H-Pyrrolo[2,3-c]pyridine-5-carboxylic acid [5-(7-isopropyl-7H-pyrrolo[2,3-d]pyrimidine-5-carbonyl)-pyridin-3-yl]-amide]", "pIC50": 6.87}
{"smiles": "Cc1cnc(C(=O)Nc2cncc(C(=O)c3cn(C(C)C)c4ncncc34)c2)cn1", "note": "[Example 393, 5-Methyl-pyrazine-2-carboxylic acid[5-(7-isopropyl-7H-pyrrolo[2,3-d]pyrimidine-5-carbonyl)-pyridin-3-yl]-amide]", "pIC50": 5.87}
{"smiles": "Cc1nn(C)cc1C(=O)Nc1cncc(C(=O)c2cn(C(C)C)c3ncncc23)c1", "note": "[Example 394, 1,3-Dimethyl-1H-pyrazole-4-carboxylic acid [5-(7-isopropyl-7H-pyrrolo[2,3-d]pyrimidine-5-carbonyl)-pyridin-3-yl]-amide]", "pIC50": 5.15}
{"smiles": "CC(C)n1cc(C(=O)c2cncc(NC(=O)c3cnc4cn[nH]c4c3)c2)c2cncnc21", "note": "[Example 395, 1H-Pyrazolo[4,3-b]pyridine-6-carboxylic acid [5-(7-isopropyl-7H-pyrrolo[2,3-d]pyrimidine-5-carbonyl)-pyridin-3-yl]-amide]", "pIC50": 5.87}
{"smiles": "CCc1cc(C(=O)Nc2cncc(C(=O)c3cn(C(C)C)c4ncncc34)c2)no1", "note": "[Example 396, 5-Ethyl-isoxazole-3-carboxylic acid[5-(7-isopropyl-7H-pyrrolo[2,3-d]pyrimidine-5-carbonyl)-pyridin-3-yl]-amide]", "pIC50": 6.75}
{"smiles": "CC(C)n1cc(C(=O)c2cncc(NC(=O)c3ccnn3C)c2)c2cncnc21", "note": "[Example 397, 2-Methyl-2H-pyrazole-3-carboxylic acid [5-(7-isopropyl-7H-pyrrolo[2,3-d]pyrimidine-5-carbonyl)-pyridin-3-yl]-amide]", "pIC50": 5.01}
{"smiles": "CC(C)n1cc(C(=O)c2cncc(NC(=O)c3cnc4ccccc4c3)c2)c2cncnc21", "note": "[Example 398, Quinoline-3-carboxylic acid [5-(7-isopropyl-7H-pyrrolo[2,3-d]pyrimidine-5-carbonyl)-pyridin-3-yl]-amide]", "pIC50": 6.86}
{"smiles": "CC(C)n1cc(C(=O)c2cncc(NC(=O)c3cc4cc(F)cnc4[nH]3)c2)c2cncnc21", "note": "[Example 399, 5-Fluoro-1H-pyrrolo[2,3-b]pyridine-2-carboxylic acid [5-(7-isopropyl-7H-pyrrolo[2,3-d]pyrimidine-5-carbonyl)-pyridin-3-yl]-amide]", "pIC50": 6.82}
{"smiles": "Cc1cc(C(=O)Nc2cncc(C(=O)c3cn(C(C)C)c4ncncc34)c2)nn1C", "note": "[Example 400, 1,5-Dimethyl-1H-pyrazole-3-carboxylic acid [5-(7-isopropyl-7H-pyrrolo[2,3-d]pyrimidine-5-carbonyl)-pyridin-3-yl]-amide]", "pIC50": 6.23}
{"smiles": "CC(C)n1cc(C(=O)c2cncc(NC(=O)c3coc(C4CC4)n3)c2)c2cncnc21", "note": "[Example 401, 2-Cyclopropyl-oxazole-4-carboxylic acid [5-(7-isopropyl-7H-pyrrolo[2,3-d]pyrimidine-5-carbonyl)-pyridin-3-yl]-amide]", "pIC50": 6.88}
{"smiles": "CC(C)n1cc(C(=O)c2cncc(NC(=O)c3scnc3C(F)(F)F)c2)c2cncnc21", "note": "[Example 402, 4-Trifluoromethyl-thiazole-5-carboxylic acid [5-(7-isopropyl-7H-pyrrolo[2,3-d]pyrimidine-5-carbonyl)-pyridin-3-yl]-amide]", "pIC50": 5.01}
{"smiles": "CC(C)n1cc(C(=O)c2cncc(NC(=O)c3ncn4c3CCC4)c2)c2cncnc21", "note": "[Example 403, 6,7-Dihydro-5H-pyrrolo[1,2-c]imidazole-1-carboxylic acid [5-(7-isopropyl-7H-pyrrolo[2,3-d]pyrimidine-5-carbonyl)-pyridin-3-yl]-amide]", "pIC50": 5.91}
{"smiles": "CC(C)n1cc(C(=O)c2cncc(NC(=O)c3cc4sccc4cn3)c2)c2cncnc21", "note": "[Example 404, Thieno[3,2-c]pyridine-6-carboxylic acid [5-(7-isopropyl-7H-pyrrolo[2,3-d]pyrimidine-5-carbonyl)-pyridin-3-yl]-amide]", "pIC50": 6.93}
{"smiles": "CC(C)n1cc(C(=O)c2cncc(NC(=O)c3cn(C)nc3C(F)(F)F)c2)c2cncnc21", "note": "[Example 405, 1-Methyl-3-trifluoromethyl-1H-pyrazole-4-carboxylic acid [5-(7-isopropyl-7H-pyrrolo[2,3-d]pyrimidine-5-carbonyl)-pyridin-3-yl]-amide]", "pIC50": 5.79}
{"smiles": "CC(C)n1cc(C(=O)c2cncc(NC(=O)c3ccn4cncc4c3)c2)c2cncnc21", "note": "[Example 406, Imidazo[1,5-a]pyridine-7-carboxylicacid [5-(7-isopropyl-7H-pyrrolo[2,3-d]pyrimidine-5-carbonyl)-pyridin-3-yl]-amide]", "pIC50": 5.58}
{"smiles": "CC(C)n1cc(C(=O)c2cncc(NC(=O)c3ccnc4[nH]ccc34)c2)c2cncnc21", "note": "[Example 407, 1H-Pyrrolo[2,3-b]pyridine-4-carboxylic acid [5-(7-isopropyl-7H-pyrrolo[2,3-d]pyrimidine-5-carbonyl)-pyridin-3-yl]-amide]", "pIC50": 5.59}
{"smiles": "CCc1cc(C(=O)Nc2cncc(C(=O)c3cn(C(C)C)c4ncncc34)c2)on1", "note": "[Example 408, 3-Ethyl-isoxazole-5-carboxylic acid[5-(7-isopropyl-7H-pyrrolo[2,3-d]pyrimidine-5-carbonyl)-pyridin-3-yl]-amide]", "pIC50": 6.18}
{"smiles": "COc1ccnc(C(=O)Nc2cncc(C(=O)c3cn(C(C)C)c4ncncc34)c2)c1", "note": "[Example 409, 4-Methoxy-pyridine-2-carboxylic acid [5-(7-isopropyl-7H-pyrrolo[2,3-d]pyrimidine-5-carbonyl)-pyridin-3-yl]-amide]", "pIC50": 7.15}
{"smiles": "CC(C)n1cc(C(=O)c2cncc(NC(=O)c3cncnc3)c2)c2cncnc21", "note": "[Example 410, Pyrimidine-5-carboxylic acid [5-(7-isopropyl-7H-pyrrolo[2,3-d]pyrimidine-5-carbonyl)-pyridin-3-yl]-amide]", "pIC50": 5.01}
{"smiles": "Cc1n[nH]cc1C(=O)Nc1cncc(C(=O)c2cn(C(C)C)c3ncncc23)c1", "note": "[Example 411, 3-Methyl-1H-pyrazole-4-carboxylic acid [5-(7-isopropyl-7H-pyrrolo[2,3-d]pyrimidine-5-carbonyl)-pyridin-3-yl]-amide]", "pIC50": 5.01}
{"smiles": "Cc1cnc2[nH]cc(C(=O)Nc3cncc(C(=O)c4cn(C(C)C)c5ncncc45)c3)c2c1", "note": "[Example 412, 5-Methyl-1H-pyrrolo[2,3-b]pyridine-3-carboxylic acid [5-(7-isopropyl-7H-pyrrolo[2,3-d]pyrimidine-5-carbonyl)-pyridin-3-yl]-amide]", "pIC50": 8.29}
{"smiles": "Cc1cncnc1C(=O)Nc1cncc(C(=O)c2cn(C(C)C)c3ncncc23)c1", "note": "[Example 413, 5-Methyl-pyrimidine-4-carboxylic acid [5-(7-isopropyl-7H-pyrrolo[2,3-d]pyrimidine-5-carbonyl)-pyridin-3-yl]-amide]", "pIC50": 5.01}
{"smiles": "CC(C)n1cc(C(=O)c2cncc(NC(=O)c3cnc4ccsc4c3)c2)c2cncnc21", "note": "[Example 414, Thieno[3,2-b]pyridine-6-carboxylic acid [5-(7-isopropyl-7H-pyrrolo[2,3-d]pyrimidine-5-carbonyl)-pyridin-3-yl]-amide]", "pIC50": 6.80}
{"smiles": "CC(C)n1cc(C(=O)c2cncc(NC(=O)c3cnc4ccnn4c3)c2)c2cncnc21", "note": "[Example 415, Pyrazolo[1,5-a]pyrimidine-6-carboxylic acid [5-(7-isopropyl-7H-pyrrolo[2,3-d]pyrimidine-5-carbonyl)-pyridin-3-yl]-amide]", "pIC50": 5.59}
{"smiles": "CC(C)n1cc(C(=O)c2cncc(NC(=O)c3noc4c3CCCC4)c2)c2cncnc21", "note": "[Example 416, 4,5,6,7-Tetrahydro-1,2-benzisoxazole-3-carboxylic acid [5-(7-isopropyl-7H-pyrrolo[2,3-d]pyrimidine-5-carbonyl)-pyridin-3-yl]-amide]", "pIC50": 7.28}
{"smiles": "CC(C)n1cc(C(=O)c2cncc(NC(=O)c3ncc4ccccn34)c2)c2cncnc21", "note": "[Example 417, Imidazo[1,5-a]pyridine-3-carboxylicacid [5-(7-isopropyl-7H-pyrrolo[2,3-d]pyrimidine-5-carbonyl)-pyridin-3-yl]-amide]", "pIC50": 7.15}
{"smiles": "CC(C)n1cc(C(=O)c2cncc(NC(=O)c3ccc4cc[nH]c4n3)c2)c2cncnc21", "note": "[Example 418, 1H-Pyrrolo[2,3-b]pyridine-6-carboxylic acid [5-(7-isopropyl-7H-pyrrolo[2,3-d]pyrimidine-5-carbonyl)-pyridin-3-yl]-amide]", "pIC50": 7.40}
{"smiles": "CC(C)n1cc(C(=O)c2cncc(NC(=O)c3n[nH]c4c3CCC4)c2)c2cncnc21", "note": "[Example 419, 1,4,5,6-Tetrahydro-cyclopentapyrazole-3-carboxylic acid [5-(7-isopropyl-7H-pyrrolo[2,3-d]pyrimidine-5-carbonyl)-pyridin-3-yl]-amide]", "pIC50": 7.82}
{"smiles": "CC(C)n1cc(C(=O)c2cncc(NC(=O)c3cncnc3N)c2)c2cncnc21", "note": "[Example 420, 4-Amino-pyrimidine-5-carboxylic acid [5-(7-isopropyl-7H-pyrrolo[2,3-d]pyrimidine-5-carbonyl)-pyridin-3-yl]-amide]", "pIC50": 5.01}
{"smiles": "CC(C)n1cc(C(=O)c2cncc(NC(=O)c3c[nH]c4cnccc34)c2)c2cncnc21", "note": "[Example 421, 1H-Pyrrolo[2,3-c]pyridine-3-carboxylic acid [5-(7-isopropyl-7H-pyrrolo[2,3-d]pyrimidine-5-carbonyl)-pyridin-3-yl]amide]", "pIC50": 5.76}
